Assay results as given in the Kinase Knowledgebase extract (Sharma et al. 2016).

Assays:
MAPK14 = MAPK14 (UniProt Q16539); assay: In vitro Inhibition of MAPK14 Kinase Activity
MAPK14 (human) = MAPK14 (human) (UniProt Q16539); assay: In vitro Inhibition of TNF-alpha Production in PBMC Cells
MAPK14 (BALB/cJ mice) = assay: In vivo Inhibition of LPS-induced TNF-alpha Production; conditions: dose or concentration not given here

MAPK14 (human), sequence (Q16539 whole entry, looked up): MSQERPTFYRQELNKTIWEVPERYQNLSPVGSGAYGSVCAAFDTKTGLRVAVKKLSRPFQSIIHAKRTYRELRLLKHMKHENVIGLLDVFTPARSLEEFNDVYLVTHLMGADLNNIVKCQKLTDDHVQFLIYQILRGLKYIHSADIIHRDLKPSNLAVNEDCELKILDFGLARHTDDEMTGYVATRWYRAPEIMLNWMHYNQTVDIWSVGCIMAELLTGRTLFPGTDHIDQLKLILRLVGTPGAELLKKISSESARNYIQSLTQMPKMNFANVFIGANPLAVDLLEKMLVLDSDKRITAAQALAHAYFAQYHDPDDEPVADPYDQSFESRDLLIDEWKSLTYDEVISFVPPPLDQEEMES
MAPK14, sequence (Q16539 whole entry, looked up): as above

SMILES	IC50 (MAPK14) [µM]	IC50 (MAPK14 (human)) [nM]	inhibition (MAPK14 (BALB/cJ mice)) [%]
COC(=O)c1c(-c2ccc(F)cc2)c(-c2ccncc2)c(Nc2ccc(N(C)C)cc2)n1C	> 10	118	15
CCOC(=O)c1c(-c2cccc(C(F)(F)F)c2)c(-c2ccncc2)c(N2CCNCC2)n1C		21	83
CN(CCO)Cc1[nH]cc(-c2ccc(F)cc2)c1-c1ccncc1		3	-8
CCCc1c(-c2ccnc(SC)n2)c(-c2ccc(F)cc2)cn1CCCN(C)C		148	-37
C=CC#Cc1c(-c2ccc(F)cc2)c(-c2ccncc2)c(C(=O)OC)n1C		34	-20
Fc1ccc(-c2cn3c(c2-c2ccncc2)CN(Cc2ccccc2)CC3)cc1		11	-6
CCOC(=O)c1c(-c2cc(F)cc(F)c2)c(-c2ccncc2)cn1C		33	-31
CCOC(=O)c1[nH]cc(-c2ccncc2)c1-c1cc(F)cc(F)c1		114	-14
CCCc1c(-c2ccnc(N[C@@H](C)c3ccccc3)n2)c(-c2ccc(F)cc2)cn1CCN1CCOCC1	10	4	-35
CCCc1[nH]cc(-c2ccc(F)cc2)c1-c1ccnc(N[C@@H](C)COC)n1		86	-35
CCOC(=O)c1c(-c2cc(F)cc(F)c2)c(-c2ccncc2)c(N2CCNCC2)n1C		93	75
Fc1ccc(-c2c[nH]c(CN3CCNCC3)c2-c2ccncc2)cc1		63	-41
COC(=O)c1c(-c2ccc(F)cc2)c(-c2ccncc2)c(NCc2ccncc2)n1C		145	-22
CCOC(=O)c1[nH]cc(-c2ccncc2)c1-c1ccc(C)cc1		136	-218
CCOC(=O)c1[nH]cc(-c2ccncc2)c1-c1ccc(F)c(F)c1		560	-32
COC(=O)C1Cn2cc(-c3ccncc3)c(-c3ccc(F)cc3)c2C1=O (configuration not stated)		29	44.7
O=C1c2c(-c3ccncc3)c(-c3ccc(F)cc3)cn2C(=O)N1Cc1ccccc1		26	51
CCn1cc(-c2ccncc2)c(-c2ccc(F)cc2)c1CO		70	48
COC(=O)c1c(-c2ccc(F)cc2)c(-c2ccncc2)c(C2=CCNCC2)n1C		72	96

SMILES	IC50 (MAPK14) [µM]	IC50 (MAPK14 (human)) [nM]	inhibition (MAPK14 (BALB/cJ mice)) [%]
COCC#Cc1c(-c2ccc(F)cc2)c(-c2ccncc2)c(C(=O)OC)n1C		443	-5
CCOC(=O)c1c(-c2ccc(C)cc2)c(-c2ccncc2)c(Br)n1C		736	-76
COC(=O)c1c(-c2ccncc2)c(-c2ccc(F)cc2)c(C#CCCO)n1C		894	30
COC(=O)c1c(-c2ccc(F)cc2)c(-c2ccncc2)c(Nc2ccc(N3CCOCC3)cc2)n1C		1560	29
COC(=O)c1c(-c2ccc(F)cc2)c(-c2ccncc2)c(NCCN2CCCC2)n1CCN1CCOCC1		969	23
CCCc1[nH]cc(-c2ccc(F)cc2)c1-c1ccnc(N[C@@H](C)c2ccccc2)n1		10	-19
CCOC(=O)c1c(-c2cc(F)cc(F)c2)c(-c2ccncc2)c(Br)n1C	> 10	2720	-36
CCn1cc(-c2ccncc2)c(-c2ccc(F)cc2)c1C(=O)OC		108	53
COC(=O)C1CCn2cc(-c3ccncc3)c(-c3ccc(F)cc3)c2C1=O (configuration not stated)		326	-9
Fc1ccc(-c2c[nH]c(CN3CCc4ccccc4C3)c2-c2ccncc2)cc1	2	40	63
Fc1ccc(-c2c[nH]c(CNCc3ccncc3)c2-c2ccncc2)cc1		74	47
COC(=O)c1c(-c2ccc(F)cc2)c(-c2ccncc2)c(Nc2cccnc2)n1C		57	-10.5
COC(=O)c1c(-c2ccc(F)cc2)c(-c2ccncc2)cn1C(=O)OC		23	-22
CCN1C(=O)c2c(-c3ccncc3)c(-c3ccc(F)cc3)cn2C1=O		401	72
Cn1cc(-c2ccncc2)c(-c2ccc(F)cc2)c1CNC(=O)Nc1ccccc1		27	82
CCNC(=O)c1[nH]cc(-c2ccc(F)cc2)c1-c1ccncc1		209	-24
COC(=O)c1c(-c2ccncc2)c(-c2ccc(F)cc2)c(NCCc2ccccc2)n1C		1020	58
O=C(NCc1ccccc1)c1[nH]cc(-c2ccc(F)cc2)c1-c1ccncc1		14	-60

Further lines, with some results ahead:

IC50 (MAPK14) [µM]	IC50 (MAPK14 (human)) [nM]	SMILES	inhibition (MAPK14 (BALB/cJ mice)) [%]
2	154	CC(=O)N1CCN(c2c(-c3ccncc3)c(-c3ccc(F)cc3)c(C#N)n2C)CC1	81
2	95	COC(=O)c1c(-c2ccc(F)cc2)c(-c2ccncc2)c(N2CCN(C)CC2)n1C	89
10	17	COC(=O)c1c(-c2ccc(F)cc2)c(-c2ccncc2)c(N2CCCC2)n1C	-38
10	33	COC(=O)c1c(-c2ccc(F)cc2)c(-c2ccncc2)c(N2CCNCC2)n1C	73
	237	COC(=O)c1c(-c2ccc(F)cc2)c(-c2ccncc2)c(N2CCC(N)C2)n1C (configuration not stated)	25
	139	COC(=O)c1c(-c2ccc(F)cc2)c(-c2ccncc2)c(N2CCN(C3CCCC3)CC2)n1C	48.6
	166	COC(=O)c1c(-c2ccc(F)cc2)c(-c2ccncc2)c(N2CCc3ccccc3C2)n1C	32
	50	COC(=O)c1c(-c2ccc(F)cc2)c(-c2ccncc2)c(NCCN2CCOCC2)n1C	44
	69	COC(=O)c1c(-c2cccc(F)c2)c(-c2ccncc2)c(N2CCNCC2)n1C	49
	370	CC(=O)c1c(-c2ccc(F)cc2)c(-c2ccncc2)c(N2CCN(C)CC2)n1C	40
	15	Cn1cc(-c2ccc(F)cc2)c(-c2ccncc2)c1N1CCNCC1	75
	135	CCN1CCN(c2c(-c3ccncc3)c(-c3ccc(F)cc3)c(C(=O)OC)n2C)CC1	67.8
2	80	CN1CCN(c2c(-c3ccncc3)c(-c3ccc(F)cc3)c(C#N)n2C)CC1	47
10	47	COC(=O)c1c(-c2ccc(F)cc2)c(-c2ccncc2)c(N2CCOCC2)n1C	-41
	301	CN(C)C(=O)c1c(-c2ccc(F)cc2)c(-c2ccncc2)c(Br)n1C	-41
	625	Cn1c(Br)c(-c2ccncc2)c(-c2ccc(F)cc2)c1C#N	22
	18	Cn1c(C#N)c(-c2ccc(F)cc2)c(-c2ccncc2)c1N1CCNCC1	67
	756	CCOC(=O)c1c(-c2ccc(F)cc2)c(-c2ccncc2)c(CCCN2CCOCC2)n1C	34
10	51	COC(=O)c1c(-c2ccc(F)cc2)c(-c2ccncc2)c(N)n1C	53.9
10	40	CC(=O)c1c(-c2ccc(F)cc2)c(-c2ccncc2)c(N2CCNCC2)n1C	39

IC50 (MAPK14) [µM]	IC50 (MAPK14 (human)) [nM]	SMILES	inhibition (MAPK14 (BALB/cJ mice)) [%]
	72	CON(C)C(=O)c1c(-c2ccc(F)cc2)c(-c2ccncc2)c(N2CCN(C(=O)OC(C)(C)C)CC2)n1C	45
	819	O=C1CCn2c(Br)c(-c3ccncc3)c(-c3ccc(F)cc3)c21	31
2	192	Cn1c(N2CCCC2)c(-c2ccncc2)c(-c2ccc(F)cc2)c1C(C)(C)O	37.7
	1380	CN(C)C(=O)c1c(-c2ccc(F)cc2)c(-c2ccncc2)cn1C	33
	30	CCOC(=O)N1CCN(c2c(-c3ccncc3)c(-c3ccc(F)cc3)c(C(=O)OC)n2C)CC1	8
10	36	Cn1c(C(=O)C2CC2)c(-c2ccc(F)cc2)c(-c2ccncc2)c1N1CCN(C(=O)C2CC2)CC1	
	269	COC(=O)c1c(-c2ccc(F)cc2)c(-c2ccncc2)c(N2CCN(CC3CC3)CC2)n1C	66.3
	2920	CCNC(=O)N1CCN(c2c(-c3ccncc3)c(-c3ccc(F)cc3)c(C(=O)OC)n2C)CC1	-38
	169	Cn1cc(-c2ccc(F)cc2)c(-c2ccncc2)c1CO	65
2	43	CC(=O)c1c(-c2ccc(F)cc2)c(-c2ccncc2)c(N2CCN(C(C)=O)CC2)n1C	
	92	COC(=O)c1c(-c2ccc(F)cc2)c(-c2ccncc2)c(NCCN2CCCCC2)n1C	-36
	180	COC(=O)c1c(-c2ccncc2)c(-c2ccc(F)cc2)c(Br)n1C	-6
10	10000	CCCNC(=O)c1c(-c2ccc(F)cc2)c(-c2ccncc2)c(N2CCNCC2)n1C	
	60	CCOC(=O)c1c(-c2ccc(C)cc2)c(-c2ccncc2)c(N2CCNCC2)n1C	79
	106	CNC(=O)c1c(-c2ccc(F)cc2)c(-c2ccncc2)c(N2CCNCC2)n1C	-7
	315	COC(=O)c1c(-c2ccc(F)cc2)c(-c2ccncc2)c(NC2CCNCC2)n1C	7
	788	COC(=O)c1c(-c2ccncc2)c(-c2ccc(F)cc2)c(C#CCN2CCOCC2)n1C	47
	67	CCC(=O)c1c(-c2ccc(F)cc2)c(-c2ccncc2)c(N2CCNCC2)n1C	32
	8	COC(=O)c1c(-c2ccc(F)cc2)c(-c2ccncc2)c(N2CCN(c3cccc(C(C)=O)c3)CC2)n1C	-21
	32	COC(=O)c1c(-c2ccncc2)c(-c2ccc(F)cc2)c(C#CCCN2CCOCC2)n1C	-4
